Structures can show the parent of a compound that is named as a salt.
Columns and labels:
[1] = Solubility of the API in the ink (Klucel EX, brilliant blue, ethanol); assay type: physicochemical; settings: brilliant blue and ethanol
Description: The ingredients of the ink were Klucel® EX (hydroxypropylcellulose, Ashland, USA), brilliant blue and ethanol.

[2] = Recrystallisation after printing: polarised microscopy and X-ray diffraction; assay type: physicochemical; settings: printed ODF
Description: X-ray diffractograms were collected for the drug-free film, the APIs and the ODFs after the fourth printing process using […], Netherland). Polarised micrographs and scanning electron micrographs were collected for the drug-free film and the ODFs after the fourth printing process using a DMLB microscope (Leica Microsystems, Cambridge, UK) and a LEO 1430 VP (Leo Elektron Microscopy, Cambridge, UK).

CN1CC(=O)N2[C@H](c3ccc4c(c3)OCO4)c3[nH]c4ccccc4c3C[C@@H]2C1=O [Tadalafil]
Solubility in the ink [1]: forms an ink-suspension

C#CCN[C@@H]1CCc2ccccc21 [Rasagiline mesylate]
Solubility in the ink [1]: soluble in the ink
Recrystallisation / crystals after the printing process [2]: did not recrystallise
